Where “and” joins values, the source holds several entries; their conditions need not be identical. Equal entries are not always repeated.
Columns and labels:
cholera toxin = conditions: cited from earlier work
Noradrenaline = Noradrenaline content in the large intestine of stress-loaded rats by LC/MS; format: in vivo, Wistar rats; conditions: Stress+ His diet+; day 17; N = 8
Protocol: (§1) After being preliminarily reared on an ordinary diet (CRF-1, Charles River Japan Inc.) for 1 week, Wistar rats (4 weeks of age, male) were fed an ordinary diet (control group) or a histidine diet prepared by mixing finely milled L-histidine hydrochloride at 2% by weight in the ordinary diet (histidine dosing group) for 2 weeks. In the mornings of day 15, day 16, and day 17 after the start of the rearing with the histidine diet, stress loading was performed by the method described below, and the feces excreted by the rats were examined for weight and description.
(§2) The large intestines of stress-loaded rats were collected and frozen in liquid nitrogen on day 17, and stored at −80° C. until use. Extracted from the frozen samples by the following protocol were noradrenaline, histamine, serotonin and 3-methylhistidine, which were then quantified by LC/MS.
(§3) Each frozen rat tissue (large intestine) stored at −80° C. as disrupted using CryoPress (manufactured by Microtec Co., Ltd.), and 1 mL of methanol per 100 mg at −80° C. was added. The mixture was disrupted using FastPrep (30 sec×2 times), and 0.8 mL of the disruption liquid was recovered. 1 mL of cold chloroform was added thereto, and the mixture was stirred using Vortex for 1 minute, after which 1 mL of cold H2O was added. After the mixture was further stirred using Vortex for 1 minute, it was allowed to stand for 30 minutes. […]

[1] = tested on: diarrhea due to stress loading using a stress cage; assay: Stress loading using a stress cage, histidine bolus oral administration (Example 2), fecal examination; format: in vivo, Wistar rats
Protocol: After being preliminarily reared on an ordinary diet (CRF-1, Charles River Japan Inc.) for 1 week, Wistar rats (6 weeks of age, male) received histidine given by gavage at a frequency of twice a day (morning and evening) on day 8 and day 9 after the start of the preliminary rearing. A 5 mL dosing volume of 0.5% methylcellulose solution (control solution) for the control group, or a solution of L-histidine hydrochloride dissolved (partially suspended) in 0.5% methylcellulose solution to a content ratio of 1.5 g per kg body weight of each rat for the histidine dosing group, was orally administered using a sonde. Stress loading was performed using a stress cage in the same manner as Example 1. That is, after each rat was transferred to a small individual cage (13.5×27×12 cm) in the morning of day 10, and allowed to stand for 2 hours, the same histidine solution or control solution as those given on the previous day were once orally administered. After being allowed to stand in a small individual cage for 2 hours, each rat was transferred to a constraint cage (5×17×4 cm) and allowed to stand for 1 hour, whereby stress loading was performed. The feces excreted by the rat were examined for description, number, and weight.
(§4) Eight rats were used for each group.

[2] = tested on: soft feces due to stress loading by front leg constraint; assay: Stress loading by front leg constraint, histidine oral administration (Example 3), fecal examination; format: in vivo, Wistar rats
Protocol: After being preliminarily reared on an ordinary diet (CRF-1, Charles River Japan Inc.) for 1 week, Wistar rats (6 weeks of age, male) received histidine given by gavage at a frequency of twice a day (morning and evening) on day 8 and day 9 as described above. A 5 mL dosing volume of 0.5% methylcellulose solution (control solution) for the control group, or a solution of L-histidine hydrochloride dissolved (partially suspended) in 0.5% methylcellulose solution to a content ratio of 1.5 g per kg body weight of each rat for the histidine dosing group, was orally administered using a sonde.
In the morning of day 10, the same histidine solution or control solution as those given on the previous day was once orally administered. One hour later, under low-dose ether anesthesia, stress loading was performed by constraining the front legs with a tape of the Scotch brand. After each animal was allowed to stand for 1 hour in an individual cage, the feces excreted by the rat were examined for description, number, and weight.
as §4

[3] = tested on: diarrhea under stress loading using a stress cage; assay: Stress loading using a stress cage, histidine diet (Example 1), fecal examination; format: in vivo, Wistar rats; conditions: for Number of individuals with diarrhea / Number of individuals with soft feces / Number of individuals without diarrhea or soft feces: 8 individuals examined
Protocol: as §1
After being allowed to stand in a small individual cage (13.5×27×12 cm) for about 2 hours, each rat was transferred to a constraint (stress) cage having a size such that the rat cannot move (5×17×4 cm), and further allowed to stand for 2 hours, whereby stress loading was performed (control stress group, histidine dosing stress group). The feces excreted by the rat were examined for description, number, and weight. The stress loading and fecal examination were performed on each individual for three consecutive days.
as §4

[4] = tested on: ulcerative damage of the intestine; conditions: reported; cited from earlier work
3-methylhistidine = 3-methylhistidine content in the large intestine of stress-loaded rats by LC/MS (index for proteolysis); format: in vivo, Wistar rats
Protocol: as §1, §2, §3

Serotonin = Serotonin content in the large intestine of stress-loaded rats by LC/MS; format: in vivo, Wistar rats
Protocol: as §1, §2, §3

Histamine = Histamine content in the large intestine of stress-loaded rats by LC/MS; format: in vivo, Wistar rats
Protocol: as §1, §2, §3

[5] = 8 individuals examined, histidine bolus oral administration
[6] = group mean, 8 rats, 1.5 g per kg oral, stress cage 1 hour
[7] = individual rats, 1.5 g per kg oral, stress cage 1 hour, hydrochloride
[8] = individual rats, 1.5 g per kg oral, front leg constraint 1 hour, hydrochloride
[9] = individual rats, 2% L-histidine hydrochloride diet, stress cage, stress day 1, hydrochloride
[10] = individual rats, 2% L-histidine hydrochloride diet, stress cage, stress day 2, hydrochloride
[11] = individual rats, 2% L-histidine hydrochloride diet, stress cage, stress day 3, hydrochloride
[12] = stress loading Day 1, histidine diet
[13] = stress loading Day 2, histidine diet
[14] = stress loading Day 3, histidine diet
[15] = Stress+ His diet+, day 17, N = 8

Cl.N[C@@H](Cc1c[nH]cn1)C(=O)O [Histidine, L-histidine hydrochloride]
action on the gut water secretion by cholera toxin (cholera toxin): suppressive action | Noradrenaline content in the large intestine (Tissue wet weight) (Noradrenaline): 0.96 nmol/g | Number of individuals with diarrhea [1, 5]: 0 | Number of individuals with soft feces [1, 5]: 8 | Number of individuals without diarrhea or soft feces [1, 5]: 0 | effect of histidine administration on diarrhea ([1]; bolus oral administration, stress cage, compared to the control group): suppressive effect | Number of normal feces, Mean [1, 6]: 0.125 | Number of soft feces, Mean [1, 6]: 6 | Total fecal weight, Mean [1, 6]: 1.64 g | Onset of diarrhea, individuals in group ([1]; group of 8 rats, 1.5 g per kg oral, stress cage 1 hour): 0 individual | Onset of diarrhea ([1]; individual rats, 1.5 g per kg oral, stress cage 1 hour): none | Number of normal feces [1, 7]: 0 (7×) and 1 | Number of soft feces [1, 7]: 12 and 8 and 3 and 5 and 6 (2×) and 4 (2×) | Total fecal weight [1, 7]: 2.379 g and 2.7 g and 0.852 g and 2.077 g and 1.515 g and 1.975 g and 0.72 g and 0.94 g | Onset of diarrhea, group line ([2]; Mean line of group, 8 rats): 0 | Mean number of normal feces ([2]; Table 8, front leg constraint): 0.88 | Mean number of soft feces ([2]; Table 8, front leg constraint): 3.75 | Total fecal weight, Mean ([2]; group mean, 8 rats): 1.68 | Number of normal feces, Mean ([2]; group mean, 8 rats, Table 7): 0.88 | Number of soft feces, Mean ([2]; group mean, 8 rats, Table 7): 3.75 | Onset of diarrhea ([2]; individual rats, 1.5 g per kg oral, front leg constraint 1 hour): none | Number of normal feces [2, 8]: 4 and 2 and 0 (5×) and 1 | Number of soft feces [2, 8]: 5 (2×) and 2 (2×) and 0 and 6 (2×) and 4 | Total fecal weight [2, 8]: 2.12 and 0.73 and 1.03 and 0 and 2.18 and 2.47 and 2.63 and 2.31 | effect of histidine administration on diarrhea ([2]; oral administration, front leg constraint, compared to the control group): suppressive effect | effect of histidine administration on diarrhea ([3]; histidine diet, stress cage, compared to the control group): suppressive effect | Number of feces Day 1 normal feces ([3]; individual rats, 2% L-histidine hydrochloride diet 2 weeks, stress cage 2 hours, stress day 1, hydrochloride): 6 and 3 (2×) and 1 and 11 and 10 and 5 and 0 | Fecal weight Total weight Day 1 [3, 9]: 1.01 g and 1.65 g and 1.94 g and 2.23 g and 2.82 g and 2.46 g and 1.77 g and 0.00 g | Number of feces Day 1 diarrhea [3, 9]: 0 (7×) and 1 | Number of feces Day 1 soft feces [3, 9]: 0 (3×) and 1 (2×) and 3 (3×) | Fecal weight Total weight Day 2 [3, 10]: 0.58 g and 0.56 g and 4.02 g and 2.38 g and 0.25 g and 3.48 g and 1.28 g and 1.26 g | Number of feces Day 2 diarrhea [3, 10]: 0 (7×) and 2 | Number of feces Day 2 normal feces [3, 10]: 4 and 2 and 10 and 8 and 3 and 5 and 6 (2×) | Number of feces Day 2 soft feces [3, 10]: 0 (4×) and 3 and 2 and 5 and 1 | Fecal weight Total weight Day 3 [3, 11]: 1.15 g and 0.46 g and 3.27 g and 1.00 g and 2.22 g and 3.99 g and 1.64 g and 0.41 g | Number of feces Day 3 diarrhea [3, 11]: 0 (7×) and 1 | Number of feces Day 3 normal feces [3, 11]: 6 (5×) and 1 and 4 and 3 | Number of feces Day 3 soft feces [3, 11]: 0 (3×) and 1 (2×) and 4 (2×) and 5 | Number of individuals with diarrhea [3, 12]: 1 | Number of individuals with soft feces [3, 12]: 5 | Number of individuals without diarrhea or soft feces [3, 12]: 3 | Number of individuals with diarrhea [3, 13]: 1 | Number of individuals with soft feces [3, 13]: 4 | Number of individuals without diarrhea or soft feces [3, 13]: 4 | Number of individuals with diarrhea [3, 14]: 1 | Number of individuals with soft feces [3, 14]: 5 | Number of individuals without diarrhea or soft feces [3, 14]: 3 | effect on ulcerative damage of the intestine by infectious microorganisms and drugs [4]: Mitigates | 3-methylhistidine content in the large intestine (Tissue wet weight) (3-methylhistidine; [15]): 0.13 nmol/g | effect on increase of 3-methylhistidine with stress loading (3-methylhistidine; histidine diet): suppressed | Serotonin content in the large intestine (Tissue wet weight) (Serotonin; [15]): 6.63 nmol/g | effect on increase of serotonin tissue content in the large intestine due to stress loading (Serotonin; histidine diet): tended to be suppressed | Histamine content in the large intestine (Tissue wet weight) (Histamine; [15]): 6.61 nmol/g | effect on increase of histamine tissue content in the large intestine due to stress loading (Histamine; histidine diet): tended to be suppressed

Reference: US20080090749A1 (priority 2005, published 2008)
